The results in this text go back to patent EP0375449B1, “Benzopyran-type compounds” (BEECHAM GROUP PLC, priority 1988, dated 1990).

Test [1] concerns Spontaneously hypertensive rats. Put plainly: Antihypertensive activity: systolic blood pressure by tail cuff method. The settings on record: maximum at 1-4 hours post dose. In kind it is in vivo. As for the experimental part:
Systolic blood pressures were recorded by a modification of the tail cuff method described by I.M. Claxton, M.G. Palfreyman, R.H. Poyser, R.L. Whiting, European Journal of Pharmacology, 37, 179 (1976). A W+W BP recorder, model 8005 was used to display pulses. Prior to all measurements rats were placed in a heated environment (33.5 ± 0.5 °C) before transfer to a restraining cage. Each determination of blood pressure was the mean of at least 5 readings. Spontaneously hypertensive rats (ages 12-18 weeks) with systolic blood pressures >180 mmHg were considered hypertensive.

For the next test, the system named is trachea. Put plainly: Bronchodilator activity: relaxation of isolated tracheal spirals. In kind it is tissue-based, guinea pigs. The settings on record: Cavia porcellus; fall in resting tension as percentage of total relaxation evoked by 10⁻³M isoprenaline; guinea pig tracheal spirals, Krebs solution 37°C; read-out: IC₅₀. As for the experimental part: Male guinea pigs (300-600g) were stunned by a blow to the head and bled from the carotid artery. The trachea was exposed, dissected free of connective tissue, and transferred to oxygenated Krebs solution at 37 °C. Next, spirals (2 per trachea) were prepared by cutting the whole trachea spirally along its longitudinal axis and then dividing this spiral lengthwise. Each preparation was mounted, using silk thread, in a 10ml organ bath filled with krebs solution at 37 °C and bubbled with 5% CO₂ with O₂. The resting tension of the preparations was set at 2g and changes in muscle tension were monitored isometrically by means of a UFI (2oz) force and displacement transducer (Ormed Ltd) connected to a Linseis pen recorder. All preparations were allowed to equilibrate for 60 minutes. During this equilibration period the preparations were washed by upward displacement at 15 minute intervals and, if necessary, the resting tension was readjusted to 2g using a mechanical micromanipulator system.
Once a steady resting tension had been obtained, the preparations were dosed simultaneously with the test compound (10⁻⁸-2x10⁻⁵M), and finally a maximum relaxation achieved by addition of 10⁻³M isoprenaline. The fall in tension evoked by the test compound was expressed as a percentage of the total relaxation evoked in the presence of 10⁻³ isoprenaline. […]

As for `CC(C)(C)OC(=O)N[C@H]1[C@H](O)c2cc(C#N)ccc2OC1(C)C` (relative stereo) [Example E1, trans-6-Cyano-2,2-dimethyl-3,4-dihydro-3-(t-butoxycarbonyl)amino-2H-1-benzopyran-4-ol], the “% b.p. fall” value in test [1] (Dose 3.0 mg/kg) stood at 30%.

As for `CC1(C)Oc2ccc(C#N)cc2[C@@H](O)[C@@H]1NC(=O)c1ccc(F)cc1` (relative stereo) [Example E3, trans-6-Cyano-2,2-dimethyl-3,4-dihydro-3-(4-fluorobenzoylamino)-2H-1-benzopyran-4-ol], in test [1] (Dose 3.0 mg/kg), the “% b.p. fall” value worked out at 42%.

In the case of `CC(C)(C)NC(=O)N[C@H]1[C@H](O)c2cc(C#N)ccc2OC1(C)C` (relative stereo) [Example E5, trans-6-Cyano-2,2-dimethyl-3,4-dihydro-3-(t-butylureido)-2H-1-benzopyran-4-ol], the “% b.p. fall” value in test [1] (Dose 0.3 mg/kg) is recorded as “≧40%”. In addition, the IC50 with trachea is 2800 nM.

In the case of `CC(C)NC(=O)N[C@H]1[C@H](O)c2cc(C#N)ccc2OC1(C)C` (relative stereo) [Example E14, trans-6-Cyano-2,2-dimethyl-3,4-dihydro-3-(isopropylureido)-2H-1-benzopyran-4-ol], the “% b.p. fall” value in test [1] (Dose 0.3 mg/kg) is listed as 22%.

For the compound `CC(C)(C)C(=O)N[C@H]1[C@H](O)c2cc(C#N)ccc2OC1(C)C` (relative stereo) [Example E21, trans-6-Cyano-2,2-dimethyl-3,4-dihydro-3-trimethylacetylamino-2H-1-benzopyran-4-ol], the “% b.p. fall” value in test [1] (Dose 1.0 mg/kg) is reported as 36%.
